The values that follow come from US20260274829A1, “NEW E3 UBIQUITIN LIGASE LIGAND, PROTEIN DEGRADATION AGENT AND USE THEREOF” (GLUETACS THERAPEUTICS (SHANGHAI) CO., LTD., priority 2023, published 2026).

pIC50: −log10 of the molar value.

For this experiment, the target named is T1, human Cereblon WT GST-tagged protein (Homo sapiens, UniProt Q96SW2).
T1 construct: purchased CISBIO 64BDCRBNPEH
T1 sequence (Q96SW2 whole entry): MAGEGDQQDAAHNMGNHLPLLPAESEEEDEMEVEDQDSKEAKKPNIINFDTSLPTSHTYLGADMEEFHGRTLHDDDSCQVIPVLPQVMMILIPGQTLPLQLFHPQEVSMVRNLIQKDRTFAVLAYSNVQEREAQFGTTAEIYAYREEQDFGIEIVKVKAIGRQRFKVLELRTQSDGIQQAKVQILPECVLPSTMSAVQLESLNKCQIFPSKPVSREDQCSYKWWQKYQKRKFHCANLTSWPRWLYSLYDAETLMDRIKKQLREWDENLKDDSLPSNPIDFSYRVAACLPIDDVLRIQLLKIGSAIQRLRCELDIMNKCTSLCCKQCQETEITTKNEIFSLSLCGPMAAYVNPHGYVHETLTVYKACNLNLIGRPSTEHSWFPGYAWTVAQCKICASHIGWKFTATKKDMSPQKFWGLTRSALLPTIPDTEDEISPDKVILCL
Nature of the experiment: CRBN binding, HTRF CEREBLON BINDING kit. As to conditions: CRBN binding, HTRF CEREBLON BINDING kit. In a few lines: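 HTRF competition in which test compounds displace a Thalidomide-Re tracer from GST-tagged human Cereblon WT, detected with a GST Eu antibody. Incubation lasted 3 hours at room temperature, with emission read at 620 and 665 nm. Inhibition rate was derived from 665/620 ratios relative to blank and solvent control wells.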
As for `CC(=O)c1c(C)c2cnc(Nc3ccc(N4CCN(Cc5cccc(N6CCC(=O)NC6=O)c5)CC4)cn3)nc2n(C2CCCC2)c1=O` [GT-06577, 1-(3-((4-(6-((6-acetyl-8-cyclopentyl-5-methyl-7-oxo-7,8-dihydropyrido[2,3-d]pyrimidin-2-yl)amino)pyridin-3-yl)piperazin-1-yl)methyl)phenyl)dihydropyrimidine-2,4(1H,3H)-dione], the pIC50 is 5.72 to 6.00.
Consider `CC(=O)c1c(C)c2cnc(Nc3ccc(N4CCN(Cc5ccc(N6CCC(=O)NC6=O)cn5)CC4)cn3)nc2n(C2CCCC2)c1=O` [GT-06578, 1-(6-((4-(6-((6-acetyl-8-cyclopentyl-5-methyl-7-oxo-7,8-dihydropyrido[2,3-d]pyrimidin-2-yl)amino)pyridin-3-yl)piperazin-1-yl)methyl)pyridin-3-yl)dihydropyrimidine-2,4(1H,3H)-dione], for which the pIC50 is 5.72 to 6.00.
On to `CC(=O)c1c(C)c2cnc(Nc3ccc(N4CCC(N5CCN(Cc6ccc(C7CCC(=O)NC7=O)cc6)CC5)CC4)cn3)nc2n(C2CCCC2)c1=O` (stereo not shown) [GT-06659, 3-(4-((4-(1-(6-((6-acetyl-8-cyclopentyl-5-methyl-7-oxo-7,8-dihydropyrido[2,3-d]pyrimidin-2-yl)amino)pyridin-3-yl)piperidin-4-yl)piperazin-1-yl)methyl)phenyl)piperidine-2,6-dione], for which the pIC50 is 6.00 to 6.30.
Regarding `Cc1nc2c(F)cc(-c3nc(Nc4ccc(CN5CCN(Cc6ccc(C7CCC(=O)NC7=O)cc6)CC5)cn4)ncc3F)cc2n1C(C)C` (stereo not shown) [GT-06664, 3-(4-((4-((6-((5-fluoro-4-(4-fluoro-1-isopropyl-2-methyl-1H-benzo[d]imidazol-6-yl)pyrimidin-2-yl)amino)pyridin-3-yl)methyl)piperazin-1-yl)methyl)phenyl)piperidine-2,6-dione], the pIC50 is 6.00 to 6.30.
The molecule `Cc1nc2c(F)cc(-c3nc(Nc4ccc(CN5CCN(Cc6ccc(N7CCC(=O)NC7=O)cc6)CC5)cn4)ncc3F)cc2n1C(C)C` [GT-06665, 1-(4-((4-((6-((5-fluoro-4-(4-fluoro-1-isopropyl-2-methyl-1H-benzo[d]imidazol-6-yl)pyrimidin-2-yl)amino)pyridin-3-yl)methyl)piperazin-1-yl)methyl)phenyl)dihydropyrimidine-2,4(1H,3H)-dione] gave a pIC50 of 5.72 to 6.00.
Take `Cc1nc2c(F)cc(-c3nc(Nc4ccc(CN5CCN(Cc6cccc(N7CCC(=O)NC7=O)c6)CC5)cn4)ncc3F)cc2n1C(C)C` [GT-06666, 1-(3-((4-((6-((5-fluoro-4-(4-fluoro-1-isopropyl-2-methyl-1H-benzo[d]imidazol-6-yl)pyrimidin-2-yl)amino)pyridin-3-yl)methyl)piperazin-1-yl)methyl)phenyl)dihydropyrimidine-2,4(1H,3H)-dione]: the pIC50 was > 6.30.
The molecule `Cc1nc2c(F)cc(-c3nc(Nc4ccc(CN5CCN(Cc6ccc(N7CCC(=O)NC7=O)cn6)CC5)cn4)ncc3F)cc2n1C(C)C` [GT-06667, 1-(6-((4-((6-((5-fluoro-4-(4-fluoro-1-isopropyl-2-methyl-1H-benzo[d]imidazol-6-yl)pyrimidin-2-yl)amino)pyridin-3-yl)methyl)piperazin-1-yl)methyl)pyridin-3-yl)dihydropyrimidine-2,4(1H,3H)-dione] showed a pIC50 of 5.72 to 6.00.
For `Cc1nc2c(F)cc(-c3nc(Nc4ccc(N5CCC(N(C)Cc6ccc(C7CCC(=O)NC7=O)cc6)CC5)cn4)ncc3F)cc2n1C(C)C` (stereo not shown) [GT-06735, 3-(4-(((1-(6-((5-fluoro-4-(4-fluoro-1-isopropyl-2-methyl-1H-benzo[d]imidazol-6-yl)pyrimidin-2-yl)amino)pyridin-3-yl)piperidin-4-yl)(methyl)amino)methyl)phenyl)piperidine-2,6-dione] the value was 6.00 to 6.30.
Consider `Cc1nc2c(F)cc(-c3nc(Nc4ccc(N5CCC(N6CCN(Cc7ccc(N8CCC(=O)NC8=O)cc7)CC6)CC5)cn4)ncc3F)cc2n1C(C)C` [GT-06739, 1-(4-((4-(1-(6-((5-fluoro-4-(4-fluoro-1-isopropyl-2-methyl-1H-benzo[d]imidazol-6-yl)pyrimidin-2-yl)amino)pyridin-3-yl)piperidin-4-yl)piperazin-1-yl)methyl)phenyl)dihydropyrimidine-2,4(1H,3H)-dione], for which the pIC50 was 6.00 to 6.30.
`Cc1nc2c(F)cc(-c3nc(Nc4ccc(N5CCC(N6CCN(Cc7cccc(N8CCC(=O)NC8=O)c7)CC6)CC5)cn4)ncc3F)cc2n1C(C)C` [GT-06740, 1-(3-((4-(1-(6-((5-fluoro-4-(4-fluoro-1-isopropyl-2-methyl-1H-benzo[d]imidazol-6-yl)pyrimidin-2-yl)amino)pyridin-3-yl)piperidin-4-yl)piperazin-1-yl)methyl)phenyl)dihydropyrimidine-2,4(1H,3H)-dione]: the pIC50 was 6.00 to 6.30.
Turning to `Cc1nc2c(F)cc(-c3nc(Nc4ccc(N5CCC(N6CCN(Cc7ccc(N8CCC(=O)NC8=O)cn7)CC6)CC5)cn4)ncc3F)cc2n1C(C)C` [GT-06741, 1-(6-((4-(1-(6-((5-fluoro-4-(4-fluoro-1-isopropyl-2-methyl-1H-benzo[d]imidazol-6-yl)pyrimidin-2-yl)amino)pyridin-3-yl)piperidin-4-yl)piperazin-1-yl)methyl)pyridin-3-yl)dihydropyrimidine-2,4(1H,3H)-dione], the negative logarithm of the IC50 (pIC50) was 6.00 to 6.30.
`Cc1nc2c(F)cc(-c3nc(Nc4ccc(N5CCC(N6CCN(Cc7cccc(NC8CCC(=O)NC8=O)c7)CC6)CC5)cn4)ncc3F)cc2n1C(C)C` (stereo not shown) [GT-06743, 3-((3-((4-(1-(6-((5-fluoro-4-(4-fluoro-1-isopropyl-2-methyl-1H-benzo[d]imidazol-6-yl)pyrimidin-2-yl)amino)pyridin-3-yl)piperidin-4-yl)piperazin-1-yl)methyl)phenyl)amino)piperidine-2,6-dione] showed a pIC50 of 5.72 to 6.00.
The same measure for `Nc1nc(Nc2ccc(S(=O)(=O)N3CCN(Cc4ccc(C5CCC(=O)NC5=O)cc4)CC3)cc2)nn1C(=O)c1c(F)cccc1F` (stereo not shown) [GT-06750, 3-(4-((4-((4-((5-amino-1-(2,6-difluorobenzoyl)-1H-1,2,4-triazol-3-yl)amino)phenyl)sulfonyl)piperazin-1-yl)methyl)phenyl)piperidine-2,6-dione]: 6.00 to 6.30; for `Nc1nc(Nc2ccc(S(=O)(=O)N3CCN(Cc4ccc(N5CCC(=O)NC5=O)cc4)CC3)cc2)nn1C(=O)c1c(F)cccc1F` [GT-06751, 1-(4-((4-((4-((5-amino-1-(2,6-difluorobenzoyl)-1H-1,2,4-triazol-3-yl)amino)phenyl)sulfonyl)piperazin-1-yl)methyl)phenyl)dihydropyrimidine-2,4(1H,3H)-dione]: 5.72 to 6.00.
`Cc1cc(S(=O)(=O)N2CCN(Cc3cccc(N4CCC(=O)NC4=O)c3)CC2)ccc1Nc1ncc(Br)c(Nc2cccc(F)c2C(N)=O)n1` [GT-06832, 2-((5-bromo-2-((4-((4-(3-(2,4-dioxotetrahydropyrimidin-1(2H)-yl)benzyl)piperazin-1-yl)sulfonyl)-2-methylphenyl)amino)pyrimidin-4-yl)amino)-6-fluorobenzamide]: the pIC50 is > 6.30.
For `Cc1nc2c(F)cc(-c3nc(Nc4ccc(N5CCC(N(C)Cc6ccc(N7CCC(=O)NC7=O)cc6)CC5)cn4)ncc3F)cc2n1C(C)C` [GT-06838, 1-(4-(((1-(6-((5-fluoro-4-(4-fluoro-1-isopropyl-2-methyl-1H-benzo[d]imidazol-6-yl)pyrimidin-2-yl)amino)pyridin-3-yl)piperidin-4-yl)(methyl)amino)methyl)phenyl)dihydropyrimidine-2,4(1H,3H)-dione] the value was 6.00 to 6.30; for `Cc1nc2c(F)cc(-c3nc(Nc4ccc(N5CCC(N(C)Cc6cccc(N7CCC(=O)NC7=O)c6)CC5)cn4)ncc3F)cc2n1C(C)C` [GT-06839, 1-(3-(((1-(6-((5-fluoro-4-(4-fluoro-1-isopropyl-2-methyl-1H-benzo[d]imidazol-6-yl)pyrimidin-2-yl)amino)pyridin-3-yl)piperidin-4-yl)(methyl)amino)methyl)phenyl)dihydropyrimidine-2,4(1H,3H)-dione], 5.72 to 6.00.
Regarding `CN(Cc1ccc(N2CCC(=O)NC2=O)cn1)C1CCN(c2ccc(Nc3ncc4nc(Nc5ccccc5)n(C5CCCC5)c4n3)cc2)CC1` [GT-07093, 1-(6-(((1-(4-((9-cyclopentyl-8-(phenylamino)-9H-purin-2-yl)amino)phenyl)piperidin-4-yl)(methyl)amino)methyl)pyridin-3-yl)dihydropyrimidine-2,4(1H,3H)-dione], the pIC50 is 6.00 to 6.30.
For `CN(Cc1cccc(NC2CCC(=O)NC2=O)c1)C1CCN(c2ccc(Nc3ncc4nc(Nc5ccccc5)n(C5CCCC5)c4n3)cc2)CC1` (stereo not shown) [GT-07094, 3-((3-(((1-(4-((9-cyclopentyl-8-(phenylamino)-9H-purin-2-yl)amino)phenyl)piperidin-4-yl)(methyl)amino)methyl)phenyl)amino)piperidine-2,6-dione] the value was 5.72 to 6.00; for `CCc1cc2c(cc1N1CCC(N3CCN(Cc4ccc(N5CCC(=O)NC5=O)cc4)CC3)CC1)C(C)(C)c1[nH]c3cc(C#N)ccc3c1C2=O` [GT-07307, 8-(4-(4-(4-(2,4-dioxotetrahydropyrimidin-1(2H)-yl)benzyl)piperazin-1-yl)piperidin-1-yl)-9-ethyl-6,6-dimethyl-11-oxo-6,11-dihydro-5H-benzo[b]carbazole-3-carbonitrile], 6.00 to 6.30.
Regarding `CCc1cc2c(cc1N1CCC(N3CCN(Cc4ccc(N5CCC(=O)NC5=O)c(F)c4)CC3)CC1)C(C)(C)c1[nH]c3cc(C#N)ccc3c1C2=O` [GT-07308, 8-(4-(4-(4-(2,4-dioxotetrahydropyrimidin-1(2H)-yl)-3-fluorobenzyl)piperazin-1-yl)piperidin-1-yl)-9-ethyl-6,6-dimethyl-11-oxo-6,11-dihydro-5H-benzo[b]carbazole-3-carbonitrile], the pIC50 was 6.00 to 6.30.
Consider `CCc1cc2c(cc1N1CCC(N3CCN(Cc4ccc(N5CCC(=O)NC5=O)cc4F)CC3)CC1)C(C)(C)c1[nH]c3cc(C#N)ccc3c1C2=O` [GT-07309, 8-(4-(4-(4-(2,4-dioxotetrahydropyrimidin-1(2H)-yl)-2-fluorobenzyl)piperazin-1-yl)piperidin-1-yl)-9-ethyl-6,6-dimethyl-11-oxo-6,11-dihydro-5H-benzo[b]carbazole-3-carbonitrile], for which the pIC50 was 6.00 to 6.30.
